The target in assay [1] is Beta Secretase enzyme (BACE) (Homo sapiens, UniProt P56817). Briefly: In vitro enzymatic BACE FRET (fluorescence resonance energy transfer) assay.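 Also: fluorescence read after 1 h with 50 nM quenched peptide substrate spanning the BACE cleavage site, in pH 4.2 acetate buffer containing 10% DMSO and nonionic detergent.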 The class given is biochemical. The note with it: BACE enzyme FRET assay; read-out: BACE1 FRET assay (IC50).
The subject of assay [2] is Aβ40 in conditioned medium of cells stably expressing Amyloid Precursor Protein (APP). Briefly: In vitro BACE cell-based assay (Aβ40 in conditioned medium, sandwich ELISA).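 Also: compounds added as a dilution series, secreted peptide quantified by europium time-resolved fluorescence readout, potency fitted from percent of control versus compound concentration.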 The settings on record: cell-based assay, read-out: HEK cell assay (IC50).
The mark [3] stands for this setting: Homo sapiens, HEK293, HEK cells.

Where two headings read alike, the source gives them in different places.

Chain of Beta Secretase enzyme (BACE) (P56817 46-501): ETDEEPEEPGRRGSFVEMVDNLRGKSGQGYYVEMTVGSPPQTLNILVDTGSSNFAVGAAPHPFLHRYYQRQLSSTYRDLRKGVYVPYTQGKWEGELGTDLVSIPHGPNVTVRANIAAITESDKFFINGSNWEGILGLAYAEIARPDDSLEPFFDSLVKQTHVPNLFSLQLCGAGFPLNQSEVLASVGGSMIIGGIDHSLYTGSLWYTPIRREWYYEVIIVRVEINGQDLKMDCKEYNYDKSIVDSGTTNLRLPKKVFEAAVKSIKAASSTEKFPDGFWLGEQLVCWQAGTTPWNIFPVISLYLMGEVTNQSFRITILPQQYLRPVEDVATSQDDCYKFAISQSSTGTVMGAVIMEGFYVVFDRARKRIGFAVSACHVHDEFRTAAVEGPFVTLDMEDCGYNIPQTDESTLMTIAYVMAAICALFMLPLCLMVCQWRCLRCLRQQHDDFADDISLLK

The IC50 is the concentration needed to halve the response being measured. As to `CC(=O)NC(Cc1ccc2c(c1)OCO2)C(O)CNC1CC2(CC(O)C2)Oc2ncc(CC(C)C)cc21` [compound 247, N-((1S,2R)-1-(1,3-benzodioxol-5-ylmethyl)-2-hydroxy-3-(((1s,3S,4′S)-3-hydroxy-6′-(2-methylpropyl)-3′,4′-dihydrospiro[cyclobutane-1,2′-pyrano[2,3-b]pyridin]-4′-yl)amino)propyl)acetamide], the half-maximal inhibitory concentration (IC50) in assay [1] is 6.77 nM; in assay [2] (setting [3]), 13.2 nM.
The corresponding values for `COC(C)C(=O)NC(Cc1ccc2c(c1)OCO2)C(O)CNC1CC2(CC(O)C2)Oc2ncc(CC(C)C)cc21` [compound 248, (2R)—N-((1S,2R)-1-(1,3-benzodioxol-5-ylmethyl)-2-hydroxy-3-(((1s,3S,4′S)-3-hydroxy-6′-(2-methylpropyl)-3′,4′-dihydrospiro[cyclobutane-1,2′-pyrano[2,3-b]pyridin]-4′-yl)amino)propyl)-2-(methyloxy)propanamide] are 17.2 nM and 35 nM.
Turning to `COCC(=O)NC(Cc1ccc(F)cc1)C(O)CNC1CC2(CC(O)C2)Oc2ncc(CC(C)C)cc21` [compound 249, N-((1S,2R)-1-((4-fluorophenyl)methyl)-2-hydroxy-3-(((1s,3S,4′S)-3-hydroxy-6′-(2-methylpropyl)-3′,4′-dihydrospiro[cyclobutane-1,2′-pyrano[2,3-b]pyridin]-4′-yl)amino)propyl)-2-(methyloxy)acetamide], the IC50 in assay [1] was 6.5 nM; in assay [2] (setting [3]), 11.3 nM.
For the molecule `CO[C@H](C)C(=O)N[C@@H](Cc1ccc(F)cc1)[C@H](O)CN[C@H]1C[C@]2(C[C@H](O)C2)Oc2ncc(CC(C)C)cc21` [compound 250, (2R)—N-((1S,2R)-1-((4-fluorophenyl)methyl)-2-hydroxy-3-(((1s,3S,4′S)-3-hydroxy-6′-(2-methylpropyl)-3′,4′-dihydrospiro[cyclobutane-1,2′-pyrano[2,3-b]pyridin]-4′-yl)amino)propyl)-2-(methyloxy)propanamide], the IC50 was 12.8 nM in assay [1] and 27.3 nM in assay [2] (HEK cells).
`CC(=O)NC(Cc1ccc(F)cc1)C(O)CNC1CC2(CC(O)C2)Oc2ncc(CC(C)C)cc21` [compound 251, N-((1S,2R)-1-((4-fluorophenyl)methyl)-2-hydroxy-3-(((1s,3S,4′S)-3-hydroxy-6′-(2-methylpropyl)-3′,4′-dihydrospiro[cyclobutane-1,2′-pyrano[2,3-b]pyridin]-4′-yl)amino)propyl)acetamide]: the IC50 stood at 6.34 nM in assay [1] and 11.8 nM in assay [2] (setting [3]).
Turning to `COCC(=O)N[C@@H](Cc1cccc(F)c1)[C@H](O)CN[C@H]1CC2(CCC2)Oc2cnc(CC(C)(C)F)cc21` [compound 252], the IC50 is 23.6 nM in assay [1] and 53.8 nM in assay [2] (setting [3]).
As to `CO[C@H](C)C(=O)N[C@@H](Cc1cccc(F)c1)[C@H](O)CN[C@H]1CC2(CCC2)Oc2cnc(CC(C)(C)F)cc21` [compound 253], the results for the IC50 in assay [1] and in assay [2] (setting [3]) were 36.2 nM and 74.4 nM, respectively.
The corresponding values for `CC(=O)N[C@@H](Cc1ccc(F)cc1)[C@H](O)CN[C@H]1CC2(CCC2)Oc2cnc(CC(C)(C)F)cc21` [compound 254] are 178 nM and 152 nM.
Take `COCC(=O)N[C@@H](Cc1ccc(F)cc1)[C@H](O)CN[C@H]1CC2(CCC2)Oc2cnc(CC(C)(C)F)cc21` [compound 255]: the figures for the IC50 in assay [1] and in assay [2] (setting [3]) were 190 nM and 216 nM, respectively.
Turning to `CO[C@H](C)C(=O)N[C@@H](Cc1ccc(F)cc1)[C@H](O)CN[C@H]1CC2(CCC2)Oc2cnc(CC(C)(C)F)cc21` [compound 256], the IC50 in assay [1] came to 226 nM; in assay [2] (setting [3]), 274 nM.
`COC(=O)C1CC2(C1)CC(NCC(O)C(Cc1ccc(F)cc1)NC(C)=O)c1cc(CC(C)(C)C)cnc1O2` [compound 257, methyl (1s,3R,4′S)-4′-(((2R,3S)-3-(acetylamino)-4-(4-fluorophenyl)-2-hydroxybutyl)amino)-6′-(2,2-dimethylpropyl)-3′,4′-dihydrospiro[cyclobutane-1,2′-pyrano[2,3-b]pyridine]-3-carboxylate]: the figures for the IC50 in assay [1] and in assay [2] (HEK cells) were 271 nM and 372 nM, respectively.
The corresponding values for `COC(=O)C1CC2(C1)CC(NCC(O)C(Cc1ccc(F)cc1)NC(C)=O)c1cc(CC(C)(C)C)cnc1O2` [compound 258, methyl (1r,3S,4′S)-4′-(((2R,3S)-3-(acetylamino)-4-(4-fluorophenyl)-2-hydroxybutyl)amino)-6′-(2,2-dimethylpropyl)-3′,4′-dihydrospiro[cyclobutane-1,2′-pyrano[2,3-b]pyridine]-3-carboxylate] are 38.9 nM and 92.9 nM.
As for `CC(=O)NC(Cc1ccc(F)cc1)C(O)CNC1CC2(CC(CO)C2)Oc2ncc(CC(C)(C)C)cc21` [compound 259, N-((1S,2R)-3-(((1s,3R,4′S)-6′-(2,2-dimethylpropyl)-3-(hydroxymethyl)-3′,4′-dihydrospiro[cyclobutane-1,2′-pyrano[2,3-b]pyridin]-4′-yl)amino)-1-((4-fluorophenyl)methyl)-2-hydroxypropyl)acetamide], the IC50 in assay [1] came to 16000 nM; in assay [2] (setting [3]), 3330 nM.
The corresponding values for `CC(=O)NC(Cc1ccc(F)cc1)C(O)CNC1CC2(CC(C#N)C2)Oc2ncc(CC(C)(C)C)cc21` [compound 260, N-((1S,2R)-3-(((1s,3R,4′S)-3-cyano-6′-(2,2-dimethylpropyl)-3′,4′-dihydrospiro[cyclobutane-1,2′-pyrano[2,3-b]pyridin]-4′-yl)amino)-1-((4-fluorophenyl)methyl)-2-hydroxypropyl)acetamide] are 98.7 nM and 70.2 nM.
The corresponding values for `CC(=O)NC(Cc1ccc(F)cc1)C(O)CNC1CC2(CC(C(=O)O)C2)Oc2ncc(CC(C)(C)C)cc21` [compound 263, (1s,3R,4′S)-4′-(((2R,3S)-3-(acetylamino)-4-(4-fluorophenyl)-2-hydroxybutyl)amino)-6′-(2,2-dimethylpropyl)-3′,4′-dihydrospiro[cyclobutane-1,2′-pyrano[2,3-b]pyridine]-3-carboxylic acid] are 10.7 nM and 976 nM.
The corresponding values for `CC(=O)N[C@@H](Cc1ccc2c(c1)OCO2)[C@H](O)CN[C@H]1CC2(CCC2)Oc2cnc(C(F)(F)F)cc21` [compound 265] are 9600 nM and 388 nM.
With `COCC(=O)N[C@@H](Cc1ccc2c(c1)OCO2)[C@H](O)CN[C@H]1CC2(CCC2)Oc2cnc(C(F)(F)F)cc21` [compound 266], the IC50 in assay [1] amounted to 7470 nM; in assay [2] (setting [3]), 1250 nM.
`COCC(=O)NC(Cc1ccc2c(c1)OCO2)C(O)CNC1CC2(CC(O)C2)Oc2ccc(CC(C)(C)C)cc21` [compound 267, N-((1S,2R)-1-(1,3-benzodioxol-5-ylmethyl)-3-(((2s,3′S,4S)-6-(2,2-dimethylpropyl)-3′-hydroxy-3,4-dihydrospiro[chromene-2,1′-cyclobutan]-4-yl)amino)-2-hydroxypropyl)-2-(methyloxy)acetamide]: the IC50 was found to be 31.8 nM in assay [1] and 31.4 nM in assay [2] (setting [3]).
Take `COC(C)C(=O)NC(Cc1ccc2c(c1)OCO2)C(O)CNC1CC2(CC(O)C2)Oc2ccc(CC(C)(C)C)cc21` [compound 268, (2R)—N-((1S,2R)-1-(1,3-benzodioxol-5-ylmethyl)-3-(((2s,3′S,4S)-6-(2,2-dimethylpropyl)-3′-hydroxy-3,4-dihydrospiro[chromene-2,1′-cyclobutan]-4-yl)amino)-2-hydroxypropyl)-2-(methyloxy)propanamide]: the IC50 in assay [1] turned out to be 18.7 nM; in assay [2] (HEK cells) it was 15.1 nM.
Regarding `COC(C)C(=O)NC(Cc1ccc2c(c1)OCO2)C(O)CNC1CC2(CC(O)C2)Oc2ccc(CC(C)(C)C)cc21` [compound 269, (2R)—N-((1S,2R)-1-(1,3-benzodioxol-5-ylmethyl)-3-(((2r,3′R,4S)-6-(2,2-dimethylpropyl)-3′-hydroxy-3,4-dihydrospiro[chromene-2,1′-cyclobutan]-4-yl)amino)-2-hydroxypropyl)-2-(methyloxy)propanamide], the IC50 amounted to 242 nM in assay [1] and 103 nM in assay [2] (HEK cells).
As for `CCNc1cc(Br)cc2c1OC1(CCC1)C[C@@H]2NC[C@@H](O)[C@H](Cc1cccc(F)c1)NC(=O)COC` [compound 270], the IC50 in assay [1] came out at 448 nM; in assay [2] (setting [3]), 157 nM.
For the molecule `COCC(=O)N[C@@H](Cc1ccc(F)cc1)[C@H](O)CN[C@H]1CC2(CCC2)Oc2ncc(CC(C)(F)F)cc21` [compound 271], the values for the IC50 in assay [1] and in assay [2] (setting [3]) were 38.7 nM and 100 nM, respectively.
As for `CC(=O)N[C@@H](Cc1ccccc1)[C@H](O)CN[C@H]1CC2(CCC2)Oc2ncc(CC(C)(F)F)cc21` [compound 272], the IC50 in assay [1] is 15.1 nM; in assay [2] (setting [3]), 14.7 nM.
As for `COCC(=O)N[C@@H](Cc1ccccc1)[C@H](O)CN[C@H]1CC2(CCC2)Oc2ncc(CC(C)(F)F)cc21` [compound 273], the figures for the IC50 in assay [1] and in assay [2] (setting [3]) were 14.9 nM and 26.5 nM, respectively.
`CC(=O)N[C@@H](Cc1ccc(F)cc1)[C@H](O)CN[C@H]1CC2(CCC2)Oc2ncc(CC(C)(F)F)cc21` [compound 274]: the values for the IC50 in assay [1] and in assay [2] (setting [3]) were 29.7 nM and 72.7 nM, respectively.
Turning to `CC(=O)N[C@@H](Cc1ccc2c(c1)OCO2)[C@H](O)CN[C@H]1CC2(CCC2)Oc2ncc(CC(C)(F)F)cc21` [compound 275], the IC50 in assay [1] was 82 nM; in assay [2] (setting [3]), 63.8 nM.
As to `COCC(=O)N[C@@H](Cc1ccc2c(c1)OCO2)[C@H](O)CN[C@H]1CC2(CCC2)Oc2ncc(CC(C)(F)F)cc21` [compound 276], the values for the IC50 in assay [1] and in assay [2] (setting [3]) were 76 nM and 87.2 nM, respectively.
Regarding `CC(=O)N[C@@H](Cc1cccc(F)c1)[C@H](O)CN[C@H]1CC2(CCC2)Oc2ncc(CC(C)(F)F)cc21` [compound 277], the IC50 in assay [1] is 6.13 nM; in assay [2] (setting [3]) it was 9.36 nM.
The corresponding values for `COCC(=O)N[C@@H](Cc1cccc(F)c1)[C@H](O)CN[C@H]1CC2(CCC2)Oc2ncc(CC(C)(F)F)cc21` [compound 278] are 6.76 nM and 8.22 nM.
In the case of `CO[C@H](C)C(=O)N[C@@H](Cc1ccc2c(c1)OCO2)[C@H](O)CN[C@H]1CC2(CCC2)Oc2ncc(CC(C)(F)F)cc21` [compound 279], the IC50 amounted to 126 nM in assay [1] and 108 nM in assay [2] (setting [3]).

These data come from US8163909B2, “Substituted hydroxyethyl amine compounds as beta-secretase modulators and methods of use” (Amgen Inc., priority 2007, dated 2012).
